“And” between values parts separate entries of the source, which are not always exact repeats. Equal entries are not always repeated. “Also recorded” adds a separate entry of the source.
Experiments:
THP-1 cells = experiment: 51Cr-release assay, PBMC killing of THP-1 (Example 4); assay type: cell-based; conditions: peptide 0.1 μM, day 17, range of E/T ratios
Description: Buffycoats were thawed (day 0), washed twice, resuspended in medium, counted and plated into wells as set out in Table Z4. THP-1 cells were irradiated with 30 GY and washed twice in medium. THP-1 cells were counted and added to PBMC containing wells as set out in Table Z4 (total volume 2 ml). Plates were placed in an incubator at 37 degrees. On days 7 and 14, 1 ml supernatant/well was removed. Cells were harvested and analyzed for cytotoxic activity on day 17. A standard ^51Cr-release assay was used to measure the cytotoxic potential of the peptide treated PBMCs. ^51Cr labeled THP-1 cells were used as target cells and peptide treated PBMCs as effector cells. Triton-X treated wells was used as maximum measurable lysis and medium alone as minimum lysis.
% Specific lysis=((cpmsample−cpmminimum)/(cpmmaximum−cpmminimum))×100%

PBMC = experiment: Direct IFN-γ ELISpot of patient PBMC stimulated with IO102 peptide; assay type: cell-based, human; conditions: patients treated with Ipilimumab without IDO-vaccine, before and after three series
metastatic melanoma = conditions: phase III; cited from earlier work
[1] = tested on: Tregs and MDSC in peripheral blood; experiment: Flow cytometry of regulatory cells in peripheral blood of patients; assay type: in vivo, human; conditions: patients treated with Ipilimumab without the vaccine (data not shown)
Description: PBMC samples was thawed in 37° C. RPMI 1640 medium (Lonza) supplemented with 2.5 ml DNAse containing Pulmozyme (Roche) and 0.26 mmol MgCl (Herlev Hospital Pharmacy) per 100 ml buffer. All stainings were done in phosphate buffered saline (PBS)(Lonza) containing 0.5% bovine serum albumin (Sigma-Aldrich). The following antibodies were used: FoxP3-PE, HLA-DR-HV500, CD3-PE-Cy7, CD19-PE-Cy7, CD56-PE-Cy7, CD4-HV500, CD11b-APC, CD3-APC (purchased from BD Bioscience), CD33-FITC, CD124-PE (purchased from BD Pharmigen), HELIOS-PerCP-Cy5.5, CD14-BV421, CD25-BV421 (all purchased from Biolegend), CD127-FITC, CD39-PE-Cy7 (purchased from eBioscience). Additionally, all samples were stained with the LIVE/DEADR Fixable Near-IR Dead Cell Stain Kit (life technologies). For intracellular staining of transcription factors, we used the Foxp3/Transcription Factor Staining Buffer Set (eBioscience) according to the manufacturors instructions. Cells were acquired on a FACSCanto II using FACSDiva Software version 6.1.3 (BD Biosciences). Analysis of flow data was done using FlowJo software version 10 OSX (TreeStar, Inc., Ashland, Oreg.). Data-analysis was done after filtering of dead cells and doublets/triplets.
Tregs were defined as CD3+CD4+CD25highCD127-FOXP3+.
MDSC were defined as PBMC negative for lineage-markers CD3, CD19 and CD56 and additionally HLADR-/lowCD14+CD11b+CD33+CD124−.

[2] = Phase I clinical trial, adverse events graded by CTCAE v. 4.0; assay type: in vivo, human
Excerpt: Patients were enrolled in a First-in-Human phase I clinical trial at the Department of Oncology at Herlev Hospital, University of Copenhagen (Herlev, Denmark) from March 2014 to August 2014. The study was originally designed as a two-armed phase I study, combining IDO1-derived peptide vaccination with standard-of-care treatment with either Ipilimumab or Vemurafenib. Only data from patients treated with Ipilimumab in combination with vaccine is reported. […]
Primary end-point was toxicity. In addition, immune-response against the vaccine peptide and the clinical benefit of treatment were assessed. […]
Safety of the study treatment was assessed in terms of occurrence of adverse events, graded according to Common Terminology Criteria for Adverse Events (CTCAE) version 4.0. Anti-tumour activity was evaluated with positron emission tomography-computed tomography (PET-CT) scans obtained at baseline (up to 28 days before treatment initiation) after 12 weeks and every 8-12 weeks thereafter until progression. CT scans were evaluated according to Response Evaluation Criteria In Solid Tumors (RECIST) version 1.1. […]

TC-1 tumour = TC-1 tumour model, peptide vaccination (Examples 7 and 8); assay type: in vivo, C57BL/6 mice
Description: C57BL/6 mice harbouring TC-1 tumour were treated with TC-1 specific E7-peptide ([…]; SEQ ID NO: 35) or IDO-Pep1 ([…]; SEQ ID NO: 33) and the efficacy of the peptide vaccines was assessed by tumour burden and survival. The mouse IDO peptide sequence (IDO-Pep1) was selected to provide a murine analog for the human IDO peptides tested in the earlier Examples, because the sequence of murine IDO1 differs to that of human IDO1.
4-6 week-old C57BL/6 mice were injected with 70,000 cell/ mouse of TC-1 cells. Treatment in respective groups was started when tumour reached an average size of approximately 0.075 cm3 (approx. 10 days after tumour inoculation). Peptides used for vaccination included TC1-specific E7-peptide ([…]; SEQ ID NO: 35) and IDO-Pep1 ([…]; SEQ ID NO: 33). The mouse IDO peptide was designed based on MHC class I and II binding algorithm. […] Mice were vaccinated two-three times with one-week interval, and the efficacy of the peptide vaccines was assessed by measuring tumour volume and/or overall survival.
C57BL/6 mice harbouring TC-1 tumour were treated with TC-1 specific E7-peptide ([…]; SEQ ID NO: 35), or IDO-Pep1 ([…]; SEQ ID NO: 33), or a combination of both E7 and IDO-Pep1. The efficacy of the vaccines was assessed by overall survival. […]

Q: For CILDSKLEVEALAQLLTFALK [IDO scrambled], which “Allogenic killing (lysis) of THP-1 cells by PBMCs” value (THP-1 cells) is on record?
A: induced less lysis of THP-1 cells

Q: With Ipilimumab as the substance, how does the “Induction of IDO-specific cells (IO102 reactivity, ELISpot)” value (PBMC) read?
A: no induction of IDO-specific cells

Q: What about the Clinical benefit rate (metastatic melanoma) of the same substance?
A: ~30%

Q: And the Overall response rate (metastatic melanoma)?
A: 10.9%

Q: And the “Level of MDSC in peripheral blood” value [1]?
A: no change in MDSC

Q: What about the “Level of Tregs in peripheral blood” value [1] of the same substance?
A: Reduced levels of Tregs

Q: And the “Toxicity, Ipilimumab” value ([2]; adverse reactions by CTCAE v. 4.0, one table line per patient (01i-13i), attributed by treating physician, Ipilimumab 3 mg/kg plus IO102 vaccine)?
A: Grade II choroiditis and None (3×) and Pruritus grade I, Grade I and diarrhoea, and Grade II rash, grade II and diarrhoea (2×) and Grade II rash and Grade II rosacea, grade III and Grade II pruritus and Grade I nausea

Q: What about the “Adverse reactions most likely related to Ipilimumab treatment” value ([2]; individual patients, CTCAE grade) of the same substance?
A: Two patients experienced grade II diarrhoea; also recorded: grade III diarrhoea; also recorded: two patients experienced grade II maculopapular rash; also recorded: flare in their pre-existing rosacea; also recorded: grade II choroiditis

Q: For “MTYENMDIL (listed as Mus musculus) [IDO-Pep1]”, which “Anti-tumour effect (tumour volume and survival)” value (TC-1 tumour; 100 μg/mouse s.c. with PADRE and QuilA, therapeutic) is on record?
A: anti-tumour protective effect; also recorded: greater protection than when vaccinated with tumour-specific peptide antigen, E7 peptide

Q: With “RAHYNIVTF (Fragment of the E7 oncoprotein of HPV) [E7 peptide]” as the substance, how does the “Protection (overall survival)” value (TC-1 tumour; 100 μg/mouse of each peptide s.c. with PADRE and QuilA) read?
A: has therapeutic efficacy

Source: patent US20220257741A1, “COMBINATION THERAPY FOR CANCER” (IO Biotech ApS, priority 2016, published 2022)
